According to patent US20250235545A1, “POLYPEPTIDE CONJUGATE AND USE THEREOF” (SHANGHAI CHIXI BIOMEDICAL TECHNOLOGY CO., LTD, priority 2024, published 2025):
≈ marks a conversion by molar mass, not a printed value. Read-outs that look alike come from different tables or passages of the source.

Tests used:
[1] = system: sarcoma SJSA-1 tumor model; conditions: 5 mg/kg once a week for three weeks
Procedure: Test objective: To investigate the antitumor efficacy of the above compounds in an animal tumor model of sarcoma SJSA-1.
(§1) Test drug: Polypeptide conjugate, Irinotecan, Belotecan and normal saline control group.
(§2) Test animals: 6-8 weeks old BALB/c mice, all female.
(§3) SJSA-1 cells were purchased from ATCC and cultured in a DMEM medium containing 10% fetal bovine serum at 37° C. in 5% CO2. Passaging was performed every three days, and cells within 15 generations were used. 2×10^7 corresponding cells were injected into right chests of nude mice subcutaneously. After a volume of the tumors reached at least 100 mm^3, the mice were grouped randomly, with three mice in each group. Then treatment was started, and the day when the treatment was started was the first day. […] The control group was administered with normal saline. Administration was performed once a week for three weeks.
as §3

[2] = system: colo320 colorectal cancer tumor model; conditions: 5 mg/kg once a week for four weeks
Procedure: Test objective: To investigate the antitumor efficacy of the above compounds in an animal tumor model of colo320 colorectal cancer.
as §1, §2
Passaging was performed every three days, and cells within 15 generations were used. 7.5×10^6 corresponding cells were injected into right chests of nude mice subcutaneously. After a volume of the tumors reached at least 120 mm^3, the mice were grouped randomly, with three mice in each group. Then treatment was started, and the day when the treatment was started was the first day. […] The control group was administered with normal saline. Administration was performed once a week for four weeks.

SJSA-1 (sarcoma tissue) = assay: cells; format: cell-based; conditions: CCK8, 48 h; for IC50 SJSA-1 (sarcoma tissue): Table 1; for IC50 Sarcoma tissue (SJSA-1): Table 6
Procedure: (§4) Different types of cells were cultured with complete media (RPMI1640 (DMEM high sugar medium)+10% fetal bovine serum+1XP/S+sodium pyruvate 1 mM solution) in an incubator at 37° C. and 5% CO2 until the cells grew to a sufficient number, and the cells were collected, centrifuged at 1,000 g for 5 min, resuspended with an appropriate volume of a 10% RMPI1640 (DMEM high sugar medium) medium and counted. In a 96-well culture plate, 100 μL of cell culture fluid containing different concentrations of drugs was added, control wells (0.1% DMSO) with only corresponding drug solvents without drugs, as well as blank wells (Blank) with only the medium but without cells were set, and three parallel wells were set in each group. After that, the cells after cell counting were inoculated onto 96-well culture plates, with 100 μL of cell suspension per well, and an inoculation concentration of the cells was 5,000 cells (100 μL)/well. The plates were then cultured in a CO2 (5%) incubator at 37° C. for 48 h. After 48 h, 10 μL of a cell proliferation staining reagent (CCK8) was added to each well, the plates were incubated in a cell incubator for around 2 h, and an absorbance at 450 nm was detected.
(§5) Cell survival rates and median inhibitory concentrations of the drugs on the cells were calculated.
as §4, with “serum+1×P/S+sodium” for “serum+1XP/S+sodium”, “adjusted to an appropriate density.” for “counted.”
(§6) Cell survival rates and median inhibitory concentrations (IC50) of the drugs on the cells were calculated.

[3] = system: A549 (non-small cell lung cancer); assay: cells; format: cell-based; conditions: CCK8, 48 h; for IC50 A549 (non-small cell lung cancer): Table 1; for IC50 Non-small cell lung cancer tissue (A549): Table 6
Procedure: as §4, §5
as §4, with “serum+1×P/S+sodium” for “serum+1XP/S+sodium”, “adjusted to an appropriate density.” for “counted.”
as §6

[4] = system: SKBR3 (breast cancer tissue); assay: cells; format: cell-based; conditions: CCK8, 48 h; for IC50 SKBR3 (breast cancer tissue): Table 1; for IC50 Breast cancer tissue (SKBR3): Table 6
Procedure: as §4, §5
as §4, with “serum+1×P/S+sodium” for “serum+1XP/S+sodium”, “adjusted to an appropriate density.” for “counted.”
as §6

A2780 (ovarian cancer) = assay: cells; format: cell-based; conditions: CCK8, 48 h; for IC50 A2780 (ovarian cancer): Table 1; for IC50 Ovarian cancer tissue (A2780): Table 6
Procedure: as §4, §5
as §4, with “serum+1×P/S+sodium” for “serum+1XP/S+sodium”, “adjusted to an appropriate density.” for “counted.”
as §6

[5] = system: colo320 (colorectal cancer tissue); assay: cells; format: cell-based; conditions: CCK8, 48 h; Table 6
Procedure: as §4, with “serum+1×P/S+sodium” for “serum+1XP/S+sodium”, “adjusted to an appropriate density.” for “counted.”
as §6

[6] = MTD determination in mice (Examples 27, 36, 44); format: in vivo; conditions: mice, monitored for 14 d
Excerpt: Test animals: 6-8 weeks old mice, all female; mice were grouped randomly, with six mice in each group, administered with drugs at different concentration gradients separately and monitored for 14 d. A mouse was euthanized at a loss of 20% of its initial weight and deemed to have died of poisoning.

Question: What does the source list for `CC[C@@]1(O)C(=O)OCc2c1cc1n(c2=O)Cc2c-1nc1ccccc1c2CCNC1CC1` [D6]?
Answer: Mouse weight (%) ([1]; Table 2): +4%; SJSA-1 (sarcoma tissue) mean tumor volume (mm^3) ([1]; Table 2): 961.3 mm^3; SJSA-1 (sarcoma) Growth rate (%) ([1]; Table 2): 828.71%; Mouse weight (%) ([1]; Table 7): +4%; SJSA-1 (sarcoma tissue) growth rate (%) ([1]; Table 7): 831.80%; SJSA-1 (sarcoma tissue) mean tumor volume (mm^3) ([1]; Table 7): 961.3 mm^3; Mouse weight (%) ([2]; Table 3): −4%; colo320 (colorectal cancer cell) growth rate (%) ([2]; Table 3): 715.73%; colo320 (colorectal cancer cell) mean tumor volume (mm^3) ([2]; Table 3): 787.3 mm^3; Mouse weight (%) ([2]; Table 8): −4%; colo320 (colorectal cancer cell) growth rate (%) ([2]; Table 8): 710.84%; colo320 (colorectal cancer cell) mean tumor volume (mm^3) ([2]; Table 8): 787.3 mm^3; IC50 SJSA-1 (sarcoma tissue) (SJSA-1 (sarcoma tissue)): 1.8 ng/mL (≈ 0.00417 µM); IC50 Sarcoma tissue (SJSA-1) (SJSA-1 (sarcoma tissue)): 1.8 ng/mL (≈ 0.00417 µM); IC50 A549 (non-small cell lung cancer) [3]: 2.5 ng/mL (≈ 0.00579 µM); IC50 Non-small cell lung cancer tissue (A549) [3]: 2.5 ng/mL (≈ 0.00579 µM); IC50 SKBR3 (breast cancer tissue) [4]: 3.8 ng/mL (≈ 0.00881 µM); IC50 Breast cancer tissue (SKBR3) [4]: 3.8 ng/mL (≈ 0.00881 µM); IC50 A2780 (ovarian cancer) (A2780 (ovarian cancer)): 2.9 ng/mL (≈ 0.00672 µM); IC50 Ovarian cancer tissue (A2780) (A2780 (ovarian cancer)): 2.9 ng/mL (≈ 0.00672 µM); IC50 Colorectal cancer tissue (colo320) [5]: 4.8 ng/mL (≈ 0.0111 µM); MTD ([6]; Table 4): 10 mg/kg; MTD ([6]; Table 9): 10 mg/kg

Question: Which “Mouse weight (%)” value ([1]; Table 2) does the source give for `CCNCCc1c2c(nc3ccccc13)-c1cc3c(c(=O)n1C2)COC(=O)[C@]3(O)CC` [D2] here?
Answer: −8%

Question: And the “SJSA-1 (sarcoma tissue) mean tumor volume (mm^3)” value ([1]; Table 2)?
Answer: 1176.5 mm^3

Question: What about the “SJSA-1 (sarcoma) Growth rate (%)” value ([1]; Table 2) of the same compound?
Answer: 1018.01%

Question: And the “Mouse weight (%)” value ([1]; Table 7)?
Answer: −8%

Question: What about the “SJSA-1 (sarcoma tissue) growth rate (%)” value ([1]; Table 7) of the same compound?
Answer: 1018.01%

Question: And the “SJSA-1 (sarcoma tissue) mean tumor volume (mm^3)” value ([1]; Table 7)?
Answer: 1176.5 mm^3

Question: And the “Mouse weight (%)” value ([2]; Table 3)?
Answer: −7%

Question: And the “colo320 (colorectal cancer cell) growth rate (%)” value ([2]; Table 3)?
Answer: 946.13%

Question: And the “colo320 (colorectal cancer cell) mean tumor volume (mm^3)” value ([2]; Table 3)?
Answer: 1047.9 mm^3

Question: What about the “Mouse weight (%)” value ([2]; Table 8) of the same compound?
Answer: −7%

Question: What about the “colo320 (colorectal cancer cell) growth rate (%)” value ([2]; Table 8) of the same compound?
Answer: 946.13%

Question: What about the “colo320 (colorectal cancer cell) mean tumor volume (mm^3)” value ([2]; Table 8) of the same compound?
Answer: 1047.9 mm^3

Question: And the “IC50 SJSA-1 (sarcoma tissue)” value (SJSA-1 (sarcoma tissue))?
Answer: 23 ng/mL (≈ 0.0548 µM)

Question: And the “IC50 Sarcoma tissue (SJSA-1)” value (SJSA-1 (sarcoma tissue))?
Answer: 23 ng/mL (≈ 0.0548 µM)

Question: And the “IC50 A549 (non-small cell lung cancer)” value [3]?
Answer: 30 ng/mL (≈ 0.0715 µM)

Question: And the “IC50 Non-small cell lung cancer tissue (A549)” value [3]?
Answer: 30 ng/mL (≈ 0.0715 µM)

Question: And the “IC50 SKBR3 (breast cancer tissue)” value [4]?
Answer: 36 ng/mL (≈ 0.0858 µM)

Question: What about the “IC50 Breast cancer tissue (SKBR3)” value [4] of the same compound?
Answer: 36 ng/mL (≈ 0.0858 µM)

Question: And the “IC50 A2780 (ovarian cancer)” value (A2780 (ovarian cancer))?
Answer: 18 ng/mL (≈ 0.0429 µM)

Question: What about the “IC50 Ovarian cancer tissue (A2780)” value (A2780 (ovarian cancer)) of the same compound?
Answer: 18 ng/mL (≈ 0.0429 µM)

Question: What about the “IC50 Colorectal cancer tissue (colo320)” value [5] of the same compound?
Answer: 51 ng/mL (≈ 0.122 µM)

Question: What about the MTD ([6]; Table 4) of the same compound?
Answer: 25 mg/kg

Question: What about the MTD ([6]; Table 9) of the same compound?
Answer: 25 mg/kg

Question: What does the source list for `CC[C@@]1(O)C(=O)OCc2c1cc1n(c2=O)Cc2c-1nc1ccccc1c2CCNC1CCC1` [D7]?
Answer: Mouse weight (%) ([1]; Table 2): −7%; SJSA-1 (sarcoma tissue) mean tumor volume (mm^3) ([1]; Table 2): 1369.5 mm^3; SJSA-1 (sarcoma) Growth rate (%) ([1]; Table 2): 1185.01%; Mouse weight (%) ([1]; Table 7): −7%; SJSA-1 (sarcoma tissue) growth rate (%) ([1]; Table 7): 1185.01%; SJSA-1 (sarcoma tissue) mean tumor volume (mm^3) ([1]; Table 7): 1369.5 mm^3; Mouse weight (%) ([2]; Table 3): −8%; colo320 (colorectal cancer cell) growth rate (%) ([2]; Table 3): 1136.64%; colo320 (colorectal cancer cell) mean tumor volume (mm^3) ([2]; Table 3): 1258.9 mm^3; Mouse weight (%) ([2]; Table 8): −8%; colo320 (colorectal cancer cell) growth rate (%) ([2]; Table 8): 1136.64%; colo320 (colorectal cancer cell) mean tumor volume (mm^3) ([2]; Table 8): 1258.9 mm^3; IC50 SJSA-1 (sarcoma tissue) (SJSA-1 (sarcoma tissue)): 8.4 ng/mL (≈ 0.0189 µM); IC50 Sarcoma tissue (SJSA-1) (SJSA-1 (sarcoma tissue)): 8.4 ng/mL (≈ 0.0189 µM); IC50 A549 (non-small cell lung cancer) [3]: 7.4 ng/mL (≈ 0.0166 µM); IC50 Non-small cell lung cancer tissue (A549) [3]: 7.4 ng/mL (≈ 0.0166 µM); IC50 SKBR3 (breast cancer tissue) [4]: 16 ng/mL (≈ 0.0359 µM); IC50 Breast cancer tissue (SKBR3) [4]: 16 ng/mL (≈ 0.0359 µM); IC50 A2780 (ovarian cancer) (A2780 (ovarian cancer)): 4.3 ng/mL (≈ 0.00965 µM); IC50 Ovarian cancer tissue (A2780) (A2780 (ovarian cancer)): 4.3 ng/mL (≈ 0.00965 µM); IC50 Colorectal cancer tissue (colo320) [5]: 17 ng/mL (≈ 0.0382 µM); MTD ([6]; Table 4): 15 mg/kg; MTD ([6]; Table 9): 15 mg/kg
